Measured values published in PubChem BioAssay (NCI).
Values joined by “and” are separate entries in the source; they are usually repeats but may differ in a detail not shown here. Equal entries are not always repeated.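 Following 48 hours of exposure in 96-well plates, responses at five concentrations were used to interpolate endpoints linearly. Here, GI50 denotes the concentration required for 50% inhibition of growth. TGI denotes the concentration required for complete inhibition of growth.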

Legend:
Assay in all cases: inhibition of tumour cell growth, NCI panel, 48 h
[1] = test system: HOP-62 NSCLC
[2] = test system: SNB-75 CNS
[3] = test system: SK-MEL-5 melanoma
[4] = test system: NCI-H460 lung
[5] = test system: LOX IMVI melanoma
[6] = test system: SW-620 colon
[7] = test system: MALME-3M melanoma
[8] = test system: RXF 393 renal
[9] = test system: KM12 colon
[10] = test system: SNB-19 CNS
[11] = test system: UACC-62 melanoma

Compound | TGI [1] | TGI [2] | TGI [3] | TGI [4] | TGI [5] | TGI [6] | TGI [7] | TGI [8] | TGI [9] | TGI [10] | TGI [11] | GI50 [1] | GI50 [2] | GI50 [5] | GI50 [6] | GI50 [8] | GI50 [9] | GI50 [10] | GI50 [11]
Cc1cccc(C(C)C)c1NC(=O)CC1Sc2ccccc2NC1=O (stereo not given) | > 100 µM | > 100 µM | > 100 µM | > 100 µM | > 100 µM | > 100 µM | 94.2 µM | > 100 µM | > 100 µM | > 100 µM | > 100 µM |  |  |  |  |  |  |  | 
O=C(CC(=O)c1ccccc1)CC(O)(c1ccccc1)c1ccccc1 | 12 µM | 27.5 µM | 13.7 µM | 16.3 µM |  | 18.1 µM | 25.4 µM |  | 21.9 µM | 35.3 µM | 14.9 µM |  |  |  |  |  |  |  | 
COc1cc(/C=C/C(=O)O)ccc1C(=O)OCc1ccccc1 | > 100 µM | > 100 µM | > 100 µM | > 100 µM | > 100 µM | > 100 µM | > 100 µM | > 100 µM | > 100 µM | > 100 µM | > 100 µM |  |  |  |  |  |  |  | 
CCOC(=O)c1csc(NC(=O)CN2CCN(C)CC2)n1 | > 100 µM | > 100 µM | > 100 µM | > 100 µM | > 100 µM | > 100 µM | > 100 µM | > 100 µM | > 100 µM | > 100 µM | > 100 µM |  |  |  |  |  |  |  | 
CCCC(O)C(NC(=O)CCl)C(=O)O (stereo not given) | > 100 µM | > 100 µM | > 100 µM | > 100 µM | > 100 µM | > 100 µM | > 100 µM | > 100 µM | > 100 µM | > 100 µM | > 100 µM |  |  |  |  |  |  |  | 
CC(=O)Nc1ccc(-c2nc3ccccc3s2)cc1 | 45.8 µM | 90.9 µM | > 100 µM | > 100 µM | > 100 µM | > 100 µM |  | 74.4 µM | > 100 µM | > 100 µM | > 100 µM |  |  |  |  |  |  |  | 
CC12CCC3C(CCC4=CC(O)CCC43C=O)C1(O)CCC2c1ccc(=O)oc1 (stereo not given) | 0.0147 µM and 0.0573 µM | 0.0544 µM and 0.0523 µM | 0.0201 µM | 0.0131 µM |  | 0.0967 µM and 0.062 µM |  | 0.00801 µM | 0.0935 µM and 0.0832 µM | 0.0224 µM and 0.101 µM | 0.0329 µM and 0.0521 µM | 0.00158 µM | 0.05 µM | 0.05 µM | 0.00909 µM | 0.00127 µM | 0.05 µM | 0.05 µM | 0.00932 µM
COc1cc2c3c(c4cc(OC)c(OC)cc4c2cc1OC)C(=O)C1CCC(=O)N1C3 (stereo not given) | 59.3 µM | 32.2 µM | > 100 µM | > 100 µM | > 100 µM | > 100 µM | 83 µM | 89.6 µM | > 100 µM |  | > 100 µM |  |  |  |  |  |  |  | 
